According to patent US20210393785A1, “Nucleic acid nanocarrier drug and preparation method thereof” (BAI YAO ZHI DA (BEIJING) NANOBIO TECHNOLOGY CO., LTD., priority 2018, published 2021):
Values joined by “and” are separate entries in the source; they are usually repeats but may differ in a detail not shown here. Equal values may be shown once.

Legend:
[1] = system: HepG2 cells; assay: CCK8 toxicity of DNA nanoparticles and carrier drugs to HepG2; format: cell-based; conditions: Homo sapiens, 72 hours
Experimental: A CCK8 method is used to detect the toxicity of DNA nanoparticles and carrier drugs to HepG2.
1. HepG2 cells in a logarithmic growth phase are taken, trypan blue is used for staining and the cell viability is counted to be 98.3%, plating is performed with 5000 Cell/well, a volume is 100 μL/well, 8 96-well plates are paved with 57 wells per plate, and it is incubated overnight at 37 DEG C.
2. A sample to be tested is diluted according to the following table and added: the original culture medium is removed and 100 μL of a culture medium of the sample to be tested with the different concentration is added, and there are 3 replicate wells in each group.
In the present embodiment, the loaded drug and the blank carrier are firstly prepared into 100 μM of stock solution by using the PBS, and then diluted with the complete culture medium (biotin-free DMEM). The original drug doxorubicin is firstly prepared into 100 μM of stock solution by the DMSO, and then diluted with the complete culture medium (biotin-free DMEM). The DMSO is directly diluted with the complete medium (biotin-free DMEM).
3. […]
6. A microplate reader is used to measure an absorbance at 450 nm.
7. Calculation: cell viability (%)=(OD experimental group-OD blank group)×100%/(OD control group-OD blank group), IC50 is calculated by Graph Pad Prism 5.0.

[2] = system: HepG2 cells; assay: Cytotoxicity in HepG-2 cells (CellTiter-Glo); format: cell-based, human; conditions: 96 hours
Experimental: 1) Harvesting cells in a logarithmic growth phase, taking a small amount and staining with trypan blue for counting to ensure that the cell viability reaches more than 80%;
(§1) 3) planting 90 μL/well of cell suspension into the 96-well plate, herein the number of cells per well in the plate is 2000;
4) placing the planted cell plate in the incubator at 37 DEG C. and incubating overnight under conditions of 5% CO2 and 95% humidity;
(§2) 5) performing 3.16-fold gradient dilution on the compound at 9 concentration points;
6) taking out the cell culture plate, and adding 10 μL/well of 10× concentration drug working solution to the corresponding wells of the cell culture plate, herein three replicate holes are made for each concentration, and the final drug action concentration is shown in Table 56 below;
(§3) 7) placing the cell culture plate in the incubator and continuously incubating for 96 hours;
8) placing the CellTiter-Glo reagent and the drug treatment cell culture plate at the room temperature and equilibrating for 30 minutes;
9) adding 50 μL of the CellTiter-Glo reagent to each well;
10) shaking in the orbital shaker for 2 minutes so that the cells are adequately lysed;
11) placing the cell culture plate at the room temperature and equilibrating for 10 minutes, reading a chemiluminescence value by using EnVision; and
12) data processing and analysis.
GraphPad Prism 5.0 software is used to process data graphically. Nonlinear S-curve regression is used to fit the data to obtain a dosage-effect curve, and an IC50 value is calculated from this.
Cell survival rate (%)=(Lumdrug to be tested−Lummedium control)/(Lumcell control−Lummedium control)×100%.
Lumcell control-Lummedium control is set to 100%, and a LumMedium control value is set to 0%.

[3] = system: LN-229 cells; assay: Cytotoxicity in LN-229 cells; format: cell-based; conditions: 96 hours
Experimental: 2) adjusting the cell density to 2.22×10^4/mL with a growth medium;
6) taking out the cell culture plate, and adding 10 μL/well of 10× concentration drug working solution to the corresponding wells of the cell culture plate, herein three replicate holes are made for each concentration, and the final drug action concentration is shown in Table 46 below;
8) placing the CellTiter 96® AQueous One Solution reagent at the room temperature and thawing for 90 minutes or thawing in a water bath at 37 DEG C., and then equilibrating at the room temperature for 30 minutes;
9) adding 50 μL/well of the CellTiter 96® AQueous One Solution reagent to the cell culture plate; […]
11) using the microplate reader to read a OD490 value of each well in the cell plate; and […]

[4] = system: SGC-7901 cells; assay: Cytotoxicity in SGC-7901 cells (CellTiter 96 AQueous One, OD490); format: cell-based, human; conditions: 96 hours
Experimental: (§4) 1) Harvesting cells in a logarithmic growth phase, taking a small amount and staining with trypan blue for counting to ensure that the cell viability reaches more than 98%;
as §1
(§5) 4) placing the planted cell plate in the incubator at 37 DEG C. and incubating overnight;
as §2
6) taking out the cell culture plate, and adding 10 μL/well of 10× concentration drug working solution to the corresponding wells of the cell culture plate, herein three replicate holes are made for each concentration, and the final drug action concentration is shown in Table 76 below;
as §3
8) placing the CellTiter 96® AQueous One Solution reagent at the room temperature and thawing for 90 minutes or thawing in a water bath at 37 DEG C., and placing at the room temperature and equilibrating for 30 minutes; […]
(§6) 11) using a microplate reader to read a OD490 value of each well in the cell plate; and […]
(§7) GraphPad Prism 5.0 software is used to process data graphically. […] A calculation formula of the survival rate is as follows, the IC50 may be automatically calculated in GraphPad Prism 5.0. […]

[5] = system: Hela cells; assay: Cytotoxicity in Hela cells (CellTiter 96 AQueous One, OD490); format: cell-based; conditions: Homo sapiens, 72 hours
Experimental: as §4
3) planting 90 μL/well of cell suspension into the 96-well plate, herein the number of cells per well in the plate is 5000;
as §5, §2
6) taking out the cell culture plate, and adding 10 μL/well of 10× concentration drug working solution to the corresponding wells of the cell culture plate, herein three replicate holes are made for each concentration, and the final drug action concentration is shown in Table 66 below;
7) placing the cell culture plate in the incubator and continuously incubating for 72 hours;
8) placing the CellTiter 96® AQueous One Solution reagent at the room temperature and thawing for 90 minutes or thawing in a water bath at 37 DEG C., placing at the room temperature and equilibrating for 30 minutes; […]
as §6, §7

[6] = Particle size measurement (DLS hydrodynamic size); format: physicochemical
Source text: 1. Preparing a potential sample (conventional-sequence DNA self-assembly product D-7) and putting into a sample pool, opening a sample pool cover of an instrument, and placing the instrument; […]
4. clicking Ok to complete the settings, while a measurement dialog box appears, clicking Start to start, a DLS measurement value result of a hydrodynamic size of the self-assembly product D-7 is as follows: […]

COc1cccc2c1C(=O)c1c(O)c3c(c(O)c1C2=O)C[C@@](O)(C(=O)CO)C[C@@H]3O[C@H]1C[C@H](N)[C@H](O)[C@H](C)O1 [doxorubicin]
IC50 [1]: 0.273 µM

CC[C@]1(O)C[C@H]2CN(CCc3c([nH]c4ccccc34)[C@@](C(=O)OC)(c3cc4c(cc3OC)N(C=O)[C@H]3[C@@](O)(C(=O)OC)[C@H](OC(C)=O)[C@]5(CC)C=CCN6CC[C@]43[C@@H]65)C2)C1 [Vincristine]
IC50 ([2]; Homo sapiens): 1.68 µM | inhibition at 100 µM ([2]; Homo sapiens, highest concentration of each sample (Table 56: 100 μM, DNAh-Bio-Cy5 4.9 μM), read-out: Inhibition rate of cell proliferation at highest concentration itself): 70.7%

N.N.[Cl][Pt][Cl] [Cisplatin]
IC50 [2]: 3.99 µM | Inhibition rate of cell proliferation at highest concentration itself ([2]; highest concentration of each sample (Table 56: 100 μM, DNAh-Bio-Cy5 4.9 μM)): 99.36% | IC50 [3]: 12.5 µM

C[C@H]1[C@@H](O)O[C@@H]2O[C@@]3(C)CC[C@H]4[C@H](C)CC[C@@H]1[C@@]24OO3 [DHA (dihydroartemisinin), Dihydroartemisinin]
IC50 ([3]; Homo sapiens): 20.2 µM

O=C1[O][Pt]2([NH][C@@H]3CCCC[C@H]3[NH]2)[O]C1=O [Oxaliplatin]
IC50 [4]: 55.8 µM

O=c1cc(-c2ccccc2)oc2ccccc12 [Flavone]
IC50 [5]: 12.6 µM

B1: D-7: conventional-sequence DNA nanoparticles, SEQ ID NO:117-119, no target head, thio modification (nucleic acid)
chain 1: CGCGCGCCCACGAGCGTTGCGGGCGCCGC
chain 2: GCGGCGCCCGCTTCGGCGGCAGGCGGC
chain 3: GCCGCCAGCCGCCCATAGCCGTGGGCGCGCG
modifications: DNA, backbone not given here; phosphorothioate (thio) modified DNA nanoparticle, further chemistry not fully specified
Particle size Z-Ave, Experiment result ([6]; result over the 3 detections): 12.33 d · nm (±1.57 d · nm) | Particle size Z-Ave ([6]; single detections 1-3, DLS hydrodynamic size): 10.76 nm·days and 13.9 nm·days and 10.36 nm·days
